Experimental data taken from patent publication US12649730B2 (MITOIMMUNE THERAPEUTICS INC., priority 2021, dated 2026).
Where two headings read alike, the source gives them in different places.

Assays:
H9C2 cells [1] = test: Cytoplasmic calcium concentration under tBHP treatment (FLIPR Calcium 6 assay kit); format: cell-based; conditions: 150 μM tBHP
Procedure: To examine the calcium concentration maintenance effect in cardiomyocytes, H9C2 cells were placed in a 96 well plate at 1.5×10^4 cells/well and cultured for 24 hours. To measure cytoplasmic calcium concentration, a FLIPR Calcium 6 assay kit (Molecular devices; #R8190) was used. Following the manufacturer's experimental method, the cells were treated with probenecid and calcium-specific dye. […] For stimulation of cells, the cells were treated with tBHP to a final concentration of 150 μM, then cytoplasmic calcium concentration was measured every 30 seconds in real time. […] The ΔF/F (Max-Min) value of the vertical axis is the difference between the maximum and minimum values for the fluorescence value of calcium-specific dye after tBHP treatment. The ΔF/F value increases with cytoplasmic calcium concentration. The horizontal axis indicates the concentration of Chemical Formula 1, and V.C. is a control only treated with the vehicle, where cytoplasmic calcium concentration increases most when treated with tBHP.

C8-D1A cells = test: Peroxynitrite removal in astrocytes under SIN-1 (DAX-J2 PON Green); format: cell-based; conditions: 10 μM and 30 μM, 200 μM SIN-1
Procedure: (§1) To confirm the effect of removing peroxynitrite produced from macrophages, RAW264.7 cells were seeded in a 96 well plate at 1×10^5 cells/well and cultured for 24 hours. Peroxynitrite was measured by fluorescence measurement using DAX-J2™ PON Green dye. […] Thereafter, SIN-1 was treated to a final concentration of 200 μM, and the amount of peroxynitrite generated in the cell every 2 minutes in real time was measured through fluorescence intensity. To confirm the effect of removing peroxynitrite from astrocytes, C8-D1A cells were seeded in a 96 well plate at 6×10^4 cells/well and cultured for 24 hours, and the experiment was performed under the same conditions. […] The horizontal axis represents the concentrations of the compound of Formula 1 and ascorbic acid, and V.C is the control treated with only the vehicle, and the concentration of intracellular peroxynitrite increases the most during SIN-1 treatment. The vertical axis represents the total amount of peroxynitrite generated 1 hour after SIN-1 treatment.

[2] = test system: MPTP-induced Parkinson's disease mouse model; test: Pole test in MPTP-induced Parkinson's disease mouse model; format: in vivo, C57BL/6 mice; conditions: intraperitoneally once a day, low, medium and high doses, 6 days from 2 days after MPTP
[3] = test system: MPTP-induced Parkinson's disease mouse model; test: Grip strength test in MPTP-induced Parkinson's disease mouse model; format: in vivo, C57BL/6 mice; conditions: intraperitoneally once a day, low, medium and high doses, 6 days from 2 days after MPTP
[4] = Solubility screening of the compound of Chemical Formula 1 in various solvents (supernatant, HPLC); format: physicochemical
[5] = Solubility equilibrium in DMSO/EtOH mixed solvent by temperature; format: physicochemical; conditions: organic solvent or mixture, thermodynamic from solid
Procedure: These were respectively heated and held at 50° C., 60° C., and 75° C. while being agitated for 6 hours. […] Accordingly, it was decided that a super-saturation method would be considered.

H9C2 cells [6] = test: Intra-mitochondrial superoxide imaging with MitoSOX under tBHP; format: cell-based; conditions: 1 μM compound, 50 μM tBHP 1 hour
Procedure: To measure the superoxides among the reactive oxygen species occurring in mitochondria, intracellular fluorescent imaging was used by using MitoSOX™ (Red Mitochondrial Superoxide Indicator). […] The cell culture medium was replaced with a medium without phenol red, then the cells were treated for 30 minutes with HOECHST (0.5 drop/ml), MitoTracker Green (150 nM) and MitoSOX (2 μM) before observing intracellular fluorescence through imaging.

[7] = test system: MPTP-induced Parkinson's disease mouse model; test: TH (Tyrosine hydroxylase) staining of brain tissue in MPTP-induced Parkinson's disease mouse model; format: in vivo, C57BL/6 mice; conditions: medium and high doses
Procedure: Behavioral disorders were induced by administering 20 mg/kg MPTP to C57BL/6 mice a total of 4 times at 2 hour intervals. […] On the 6th day after administration of the compound of Formula 1, mice were sacrificed, frozen sections of brain tissue were prepared, and TH (Tyrosine hydroxylase) staining was performed.

RAW264.7 cells = test: Peroxynitrite removal in macrophages under SIN-1 (DAX-J2 PON Green); format: cell-based; conditions: RAW264.7 macrophages, 10 μM and 30 μM, 200 μM SIN-1
Procedure: as §1

H9C2 cells [8] = test: Mitochondrial calcium imaging with Rhod-2 under tBHP, thapsigargin and CaCl2; format: cell-based; conditions: 10 μM compound, 150 μM tBHP, 1.2 μM thapsigargin, 2 mM CaCl2
Procedure: In addition, in order to confirm the effect of inhibiting the increase in mitochondrial calcium concentration in cardiomyocytes by cell imaging, H9C2 cells were seeded in a 35 mm culture dish at 1.5×10^4 cells and cultured for 24 hours. Imaging of calcium concentration in mitochondria was performed using Rhod-2. The cells were treated with Rhod-2, MitoTracker Green (200 nM), and Hoechst33342 (2 drops/ml) for 50 minutes, washed twice with KRB buffer, and incubated for another 30 minutes with buffer solution. The cells were treated with the compound of Formula 1 for 0.25 hours to final concentration of 10 μM, and treated with tBHP for 30 minutes to final concentration of 150 μM. Then, the cells were treated with 1.2 μM thapsigargin for 10 minutes and 2 mM of CaCl2, and the fluorescence developed in mitochondrial calcium of the living cells was observed through imaging.

H9C2 cells [9] = test: Intra-mitochondrial reactive oxygen species, DHR-123 fluorometry under tBHP; format: cell-based; conditions: 0.0001 to 30 μM compound, 400 μM tBHP
Procedure: To examine the intra-mitochondrial reactive oxygen species removal effect in cardiomyocytes, H9C2 cells were placed in a 96 well plate at 1.5×10^4 cells/well and cultured for 24 hours. To measure mitochondria-specific reactive oxygen species, fluorometry using dihydrorhodamine-123 (DHR-123) was used.

[10] = intraperitoneally once a day, low, 6 days

For O=S1(=O)CCN(Cc2cc(NC3CCOCC3)c3[nH]c(-c4ccccc4)cc3c2)CC1 [compound of Chemical Formula 1, 5-[(1,1-dioxido-4-thiomorpholinyl)methyl]-2-phenyl-N-(tetrahydro-2H-pyran-4-yl)-1H-indol-7-amine], the “Cytoplasmic calcium concentration (ΔF/F Max-Min) after tBHP” value (H9C2 cells [1]; 0.01 μM compound) was “reduced”, the “Cytoplasmic calcium concentration (ΔF/F Max-Min) after tBHP” value (H9C2 cells [1]; 0.1 μM compound) was “normal level of cytoplasmic calcium concentration” and the “Peroxynitrite inhibition compared with positive control ascorbic acid” value (C8-D1A cells) was “superior inhibitory effect than ascorbic acid”. For the same molecule, the “Total peroxynitrite generated 1 hour after SIN-1 treatment” value (C8-D1A cells) was “peroxynitrite generation was inhibited by treatment with the compound of Formula 1 in a concentration-dependent manner”, the “Pole test T-turn time” value [2] was “recovered in a concentration-dependent manner” and the “Pole test total time” value [2] was “recovered in a concentration-dependent manner”. For the same molecule, the Grip force value [3] was “restored in a concentration-dependent manner”, the Solubility ([4]; Heptane, 25° C.) was “<LOQ” and the Solubility ([4]; Heptane, 50° C.) was “<LOQ”. The Solubility ([4]; MTBE, 25° C.) was 0.06 mg/mL, the Solubility ([4]; MTBE, 50° C.) was 0.07 mg/mL and the Solubility ([4]; THF, 25° C.) was 17.40 mg/mL. The Solubility ([4]; in most solvents (Table 3)) was “very low”, the Solubility ([4]; organic solvent or mixture, thermodynamic from solid, in DMF, NMP and DMSO (Table 3), read-out: Solubility) was no less than 40 mg/mL and the solubility at 6 h ([5]; DMSO/EtOH 1:4 mixed solvent, DMSO/EtOH 1:4, 50° C.) was 15 mg/mL. It also gave a solubility at 6 h ([5]; DMSO/EtOH 1:4 mixed solvent, DMSO/EtOH 1:4, 60° C.) of 19 mg/mL, a solubility at 6 h ([5]; DMSO/EtOH 1:4 mixed solvent, DMSO/EtOH 1:4, 75° C.) of 31 mg/mL and a solubility at 6 h ([5]; DMSO/EtOH 1:5 mixed solvent, DMSO/EtOH 1:5, 50° C.) of 12 mg/mL. For the same molecule, the solubility at 6 h ([5]; DMSO/EtOH 1:5 mixed solvent, DMSO/EtOH 1:5, 60° C.) was 14 mg/mL, the solubility at 6 h ([5]; DMSO/EtOH 1:5 mixed solvent, DMSO/EtOH 1:5, 75° C.) was 19 mg/mL and the “Intra-mitochondrial superoxide (MitoSOX fluorescence)” value (H9C2 cells [6]) was “effectively removes intra-mitochondrial reactive oxygen species including superoxides”. For the same molecule, the “TH level in the striatum” value [7, 10] was “recovered in a concentration-dependent manner”, the “TH level in the substantia nigra” value [7, 10] was “recovered in a concentration-dependent manner” and the “TH level in the striatum” value [7] was “significantly increased”. For the same molecule, the “Peroxynitrite inhibition compared with positive control ascorbic acid” value (RAW264.7 cells) was “superior inhibitory effect than ascorbic acid”, the “Total peroxynitrite generated 1 hour after SIN-1 treatment” value (RAW264.7 cells) was “peroxynitrite generation was inhibited by treatment with the compound of Formula 1 in a concentration-dependent manner” and the “Mitochondrial calcium concentration (Rhod-2 fluorescence)” value (H9C2 cells [8]) was “effectively inhibited the increase in the calcium concentration in mitochondria”. For the same molecule, the “Total intra-mitochondrial reactive oxygen species over 2 hours after tBHP (DHR-123)” value (H9C2 cells [9]) was “inhibit occurrence of reactive oxygen species in a concentration-dependent manner”.
